What was measured:
[1] = system: AMPK; assay: AMPK activation assay (western blot phospho-AMPK Thr172) in C2C12; type: cell-based, mouse; details: C2C12 cells, 30 min treatment
Procedure: (§1) Effects of compounds on AMPK activation were analyzed in mouse muscle cell C2C12, mouse fibroblast 3T3-L1 and human hepatocyte Hep G2. Those cell lines were cultured in high-glucose Dulbecco's modified Eagle's medium (DMEM) containing 10% fetal bovine serum (FBS), 4 mM L-glutamine, 2 mM sodium pyruvate and 1% penicillin/streptomycin (Invitrogen GibcoBRL, Carlsbad, Calif., USA) at 37° C. under 5% CO2. Cells were plated at 3×10^5 per well (6-well plate). 24 h after plating, cells were treated with indicated compounds for 30 min followed by cell lysis and western blot analysis. Equal amount of protein were separated by SDS-PAGE and then electroblotted on to PVDF membranes. Membranes were blocked with 3% BSA in PBS for 60 min and incubated with anti-phospho-AMPK (Thr172) antibody (1:2,000, Cell signaling), anti-AMPK antibody (1:2,000, Cell signaling), anti-Glut4 antibody (1:1,000, Millipore) or anti-actin antibody (1:5,000; Chemicon International) at 4° C. overnight followed by the corresponding secondary antibody for 1 h at room temperature (RT). Immunoreactive bands were detected by enhanced chemiluminescence (ECL; Pierce, Rockford, Ill., USA) and recorded using Kodakfilm (Rochester, N.Y., USA). The detected signals were scanned and then quantified by using TotalLab Quant software (TotalLab).

[2] = system: AMPK; assay: AMPK activation assay (western blot phospho-AMPK Thr172) in 3T3-L1; type: cell-based, mouse; details: 3T3-L1 cells, 30 min treatment
Procedure: as §1

[3] = system: AMPK; assay: AMPK activation assay (western blot phospho-AMPK Thr172) in Hep G2; type: cell-based, human; details: Hep G2 cells, 30 min treatment
Procedure: as §1

Row | SMILES | AMPK activation (% to control) C2C12 ([1]; 1 microM) | AMPK activation (% to control) C2C12 ([1]; 10 microM) | AMPK activation (% to control) C2C12 ([1]; 100 microM) | AMPK activation (% to control) C2C12 ([1]; 200 microM) | AMPK activation (% to control) 3T3-L1 ([2]; 1 microM) | AMPK activation (% to control) 3T3-L1 ([2]; 10 microM) | AMPK activation (% to control) 3T3-L1 ([2]; 100 microM) | AMPK activation (% to control) 3T3-L1 ([2]; 200 microM) | AMPK activation (% to control) Hep G2 ([3]; 1 microM) | AMPK activation (% to control) Hep G2 ([3]; 10 microM) | AMPK activation (% to control) Hep G2 ([3]; 100 microM) | AMPK activation (% to control) Hep G2 ([3]; 200 microM)
1 | Nc1nc(N)c2[nH]cnc2n1 [2,6-diaminopurine] | 116 % to control | 181 % to control | 281 % to control | 381 % to control | 108 % to control | 149 % to control | 288 % to control | 335 % to control | 113 % to control | 155 % to control | 274 % to control | 397 % to control
2 | Oc1nc(O)c2[nH]cnc2n1 [2,6-dihydroxypurine] | 105 % to control | 115 % to control | 231 % to control | 347 % to control | 109 % to control | 132 % to control | 205 % to control | 361 % to control | 114 % to control | 139 % to control | 198 % to control | 302 % to control
3 | Sc1nc(S)c2[nH]cnc2n1 [2,6-dimercaptopurine] | 104 % to control | 117 % to control | 215 % to control | 298 % to control | 102 % to control | 98 % to control | 178 % to control | 260 % to control | 110 % to control | 133 % to control | 244 % to control | 366 % to control
4 | COc1cccc(CNc2nc(N)nc3nc[nH]c23)c1OC [2-amino-6-(2,3-dimethoxybenzylamino)purine] | 106 % to control | 144 % to control | 263 % to control | 334 % to control | 118 % to control | 156 % to control | 250 % to control | 347 % to control | 115 % to control | 127 % to control | 229 % to control | 318 % to control
5 | COc1cc(CNc2nc(C)nc3nc[nH]c23)cc(OC)c1OC [2-methyl-6-(3,4,5-trimethoxybenzylamino)purine] | 106 % to control | 117 % to control | 211 % to control | 361 % to control | 115 % to control | 141 % to control | 254 % to control | 346 % to control | 112 % to control | 168 % to control | 270 % to control | 359 % to control
6 | O=C1CCNC(=O)N1 [5,6-dihydrouracil] | 108 % to control | 114 % to control | 207 % to control | 326 % to control | 116 % to control | 159 % to control | 268 % to control | 341 % to control | 120 % to control | 167 % to control | 274 % to control | 360 % to control
7 | Clc1cccc(Nc2ncnc3nc[nH]c23)c1 [6-(3-chloroanilino)purine] | 108 % to control | 118 % to control | 186 % to control | 307 % to control | 116 % to control | 130 % to control | 217 % to control | 301 % to control | 106 % to control | 109 % to control | 212 % to control | 319 % to control
8 | Nc1cc[nH]c(=O)n1 [Cytosine] | 119 % to control | 158 % to control | 253 % to control | 361 % to control | 117 % to control | 127 % to control | – | 310 % to control | 117 % to control | 164 % to control | 281 % to control | 359 % to control
9 | CN(C)c1nc(O)c2[nH]cnc2n1 [Example 2-Dimethylamino-6-hydroxypurine, 2-Dimethylamino-6-hydroxypurine] | 105 % to control | 111 % to control | 229 % to control | 298 % to control | 106 % to control | 108 % to control | 205 % to control | 264 % to control | 117 % to control | 132 % to control | 185 % to control | 218 % to control
10 | CC(C)CCNc1nc(N)nc2nc[nH]c12 [Example 2-amino-6-isopentylaminopurine, 2-amino-6-isopentylaminopurine] | 104 % to control | 114 % to control | 238 % to control | 305 % to control | 110 % to control | 169 % to control | 271 % to control | 361 % to control | 117 % to control | 174 % to control | 250 % to control | 341 % to control

Source: patent US9938279B2, “Method for treating disease or condition susceptible to amelioration by AMPK activators and compounds of formula which are useful to activate AMP-activated protein kinase (AMPK)” (ENERGENESIS BIOMEDICAL CO., LTD, priority 2013, dated 2018)
